According to patent US20260234116A1, “CYTOTOXIC EPOXYKETONE COMPOUNDS, PRECURSORS, COMPOSITIONS, AND METHODS OF USE” (Memorial Sloan-Kettering Cancer Center, priority 2023, published 2026):

What was measured:
U266 cells = experiment: In situ activation of β-ketoacid 11a by EpnF, cell viability, CellTitre-Glo, 48 h; assay type: cell-based; details: U266, 48 h
Procedure: For in situ activation of β-ketoacid 11a by EpnF, U266 cells were seeded in a 96-well plate as above, at 20,000 cells per well in […] RPMI. Recombinant EpnF (100 μM in EpnF Buffer) was diluted in RPMI to 5 μM concentration (300 μL final volume), then 10 μL of this enzyme solution was added to the plate wells to 0.5 μM EpnF final concentration. Stock solutions (20 mM) of β-ketoacid 11a and epoxyketone 12a in EtOH or DMSO, respectively, were diluted to 5% EtOH or DMSO in RPMI to provide working stocks at 1 mM. The working stocks were log-diluted to 1 mM-0.05 μM using RPMI containing 5% EtOH or 5% DMSO, respectively. Aliquots of compounds (10 μL) were added to the sample wells for final concentrations of 100-0.005 μM. Separate negative control wells were treated with 10 μL of 5% EtOH or 5% DMSO in RPMI (0.5% final concentration). The cells were incubated for 48 hr, then cell viability was measured with the CellTitre-Glo assay. Results of compound-treated wells were normalized to negative control wells.

EpnF = EpnF (Streptomyces hygroscopicus, UniProt V5RMU9); experiment: Enzyme kinetic analysis by SPE-MS/MS assay; assay type: biochemical; details: relative to 11n
EpnF, sequence (V5RMU9 entry or part of it): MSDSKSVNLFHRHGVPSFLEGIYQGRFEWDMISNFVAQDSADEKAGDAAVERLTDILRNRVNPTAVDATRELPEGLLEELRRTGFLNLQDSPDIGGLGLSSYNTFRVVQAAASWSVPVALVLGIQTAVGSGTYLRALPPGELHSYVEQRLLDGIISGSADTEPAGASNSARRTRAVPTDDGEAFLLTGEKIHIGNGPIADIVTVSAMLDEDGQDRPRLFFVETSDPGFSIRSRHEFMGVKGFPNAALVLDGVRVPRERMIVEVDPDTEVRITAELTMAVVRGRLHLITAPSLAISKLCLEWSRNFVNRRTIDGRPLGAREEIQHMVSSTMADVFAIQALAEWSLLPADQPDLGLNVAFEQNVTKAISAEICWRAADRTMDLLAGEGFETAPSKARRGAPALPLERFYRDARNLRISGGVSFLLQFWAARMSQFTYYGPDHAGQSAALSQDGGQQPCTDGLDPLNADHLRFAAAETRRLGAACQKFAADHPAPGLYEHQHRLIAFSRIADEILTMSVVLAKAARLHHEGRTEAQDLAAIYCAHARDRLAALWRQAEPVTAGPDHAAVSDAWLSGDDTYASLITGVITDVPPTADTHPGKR
Procedure: SPE-MS/MS analyses were carried out on an Agilent RapidFire 365 High-Throughput Mass Spectrometry System with 6495 triple quadrupole mass spectrometer. Determination of initial velocity: EpnF stock at 100 μM was diluted 10-fold in EpnF Buffer to a 10 μM working solution, which was further diluted to 8 concentrations (10-0.005 μM) in EpnF Buffer (intermediate volume 1350 μL, concentrations calculated for 1500 μL theoretical final volume corresponding to addition of substrate solutions below). The 8 EpnF enzyme dilutions were aliquoted (90 μL) into the corresponding 8 tubes of PCR tube strips (12 strips, one per time point; Thermo Scientific, AB-2000). The β-ketoacid 11 (20 mM in EtOH) was diluted to 10 μM in EpnF Buffer, then 10 μL of this solution was added to each of the tubes (1 μM final concentration, 100 μL final volume) to initiate the reaction. Samples were incubated in a heated shaker at 37° C. and 225 rpm for up to 120 min, and one tube strip was removed at each time point. Each tube was quenched with 5% formic acid in EpnF Buffer (100 μL), pipetted vigorously, and flash frozen on dry ice. Samples were thawed then centrifuged to precipitate protein and transferred to a conical-bottom 96-well plate (Thermo Scientific/Nunc, 249944) for SPE-MS/MS analysis. Measurement of Km and Vmax: Using the data from the initial velocity experiments above, an appropriate EpnF enzyme concentration was selected for each β-ketoacid 11 at which the rate of conversion to the epoxyketone 12 remained linear at 10 min (0.50 μM for 11n and 0.05 μM for all other substrates). Each substrate (20 mM in EtOH) was diluted to 1 mM in EpnF Buffer, then diluted to 8 concentrations (100-0.5 μM) in EpnF Buffer (intermediate volume 1350 μL, concentrations calculated for 1500 μL theoretical volume corresponding to addition of enzyme solutions below). The 8 substrate dilutions were aliquoted (90 μL) into the corresponding 8 tubes of PCR tube strips (12 strips, one per time point; Thermo Scientific, AB-2000). The EpnF enzyme stock solution was diluted in EpnF Buffer to the appropriate concentration for each substrate, then 10 μL of this solution was added to each of the tubes (100 μL final volume) to initiate the reaction. For the 0-min time point, 5% formic acid in EpnF Buffer was added to the β-ketoacid substrate before addition of the enzyme. Samples were incubated in a heated shaker at 37° C. and 225 rpm for up to 10 min, and one tube strip was removed at each time point. Each tube was quenched by addition of 5% formic acid in EpnF Buffer (100 μL), pipetted vigorously, and flash frozen on dry ice. Samples were thawed then centrifuged to precipitate proteins and the supernatants were transferred to a conical-bottom 96-well plate (Thermo Scientific/Nunc, 249944) for SPE-MS/MS analysis. Km and Vmax values for each substrate were calculated by Michaelis-Menten analysis. To obtain a quantitative assessment of EpnF substrate specificity, we developed a kinetic assay (10 min) using SPE-MS/MS (solid-phase extraction/triple quadrupole mass spectrometry; Agilent RapidFire 365 with 6495 MS) to enable direct detection of both substrates and products.

converted more efficiently than 11n (EpnF): ≈ 20 fold
SMILES: CC(C)CCCCC(=O)N[C@@H](CO)C(=O)N[C@@H](CC(C)C)C(=O)C(C)(C)C(=O)O [Compound 11a, (4S)-4-[(2S)-3-Hydroxy-2-(6-methylheptanamido)propanamido]-2,2,6-trimethyl-3-oxoheptanoic acid]
cytotoxicity of β-ketoacid activated in situ (U266 cells; in presence of EpnF (0.5 μM)): cytotoxicity comparable to that of the corresponding isolated epoxyketone 12a
no cytotoxicity at up to (concentration) (U266 cells; prodrug alone, absence of EpnF): > 100 µM
